Patent publication US20240261274A1, “TREATMENT OF MYC-DRIVEN CANCERS WITH GSPT1 DEGRADERS” (MONTE ROSA THERAPEUTICS, INC., priority 2021, published 2024)

Experiments:
IKZF1 = target: T1, IKZF1 (Homo sapiens, UniProt Q13422+Q96SW2); assay: Selectivity western blot assay in MM1 S cells, IKZF1; type: cell-based; set-up: key: A represents no degradation observed at 30 μM; B represents trace degradation at 30 μM (below 20%); C represents weak degradation at 30 μM (below 50%); D represents degradation at 30 μM (>90%); E represents degradation at 3 μM (>90%); F represents degradation at 0.3 μM (>90%); details: MM1 S cells, 0.3, 3 and 30 μM, 6 hours
T1 construct: endogenous in cells; host or cells: MM1 S (ATCC CRL-2974)
Description: (§1) MM1 S cells were purchased from ATCC (cat. Number CRL-2974), sub-cultured in 90% RPMI 1640 with 10% FBS, supplemented with 1×P/S and incubated at 37° C., 5% CO2. Compounds were stored as 10 mM DMSO stock. For the assay, MM1 S cells (3 million cells/well) were plated in 6-well plates and incubated over night. Cells were treated with respective compounds using a serial dilution: 0.3 μM, 3 μM and 30 μM as well as a vehicle only (DMSO) control for 6 hours. Media with suspension cells was subsequently transferred to 15 mL conical tubes, wells rinsed twice with ice-cold PBS and merged with cell suspension in respective 15 mL conical tube. Cells were spinned down, supernatant aspirated, pellets resuspended in ice-cold PBS and transferred to microtubes. Cells were spinned down, supernatant aspirated and pellets resuspended in 120 μL RIPA lysis buffer supplemented with protease and phosphatase inhibitors. Cell lysates were incubated on ice for 20 minutes followed by centrifugation at >20,000×g for 5 min. Supernatants were transferred to fresh microtubes and stored at −80° C. Total protein concentration was determined using a BCA assay with a BSA standard curve and concentration of all samples was adjusted to 1 mg/mL. 25 μL 4×LDS sample buffer supplemented with 100 mM DTT was added to 75 μL sample. Samples were centrifuged (8,000×g, 1 min) and incubated at 95° C. for 5 min followed by another centrifugation step (8,000×g, 1 min). 20 μL of each sample was loaded on a 4-12% gel alongside a protein molecular weight marker. Gels were run in the presence of MOPS buffer at 80 Volts for 30 min, followed by 120 Volts for 1.5 h and proteins subsequently transferred onto nitrocellulose membranes at 20 Volts for 7 min using an iBlot2 Gel Transfer Device. Membranes were then cut horizontally into two pieces, covering 80-50 kDa and 50-25 kDa. Blocking the membranes was performed by gently shaking in 5% (w/v) skim milk in TSB-T for 1 hr at room temperature. All primary antibodies were used at a 1/1000 in 5% (w/v) BSA dissolved in TBST and incubated with membranes over night at 4° C. After three washes with 1×TBST for 5 min, HRP-coupled secondary antibodies diluted in 5% (w/v) BSA/TBST (Goat Anti-Rb IgG, dil. 1/10,000; Goat Anti-Mouse IgG, dil. 1/5000) were added for 1 hr at room temperature. After three washes with 1×TBST (5 minutes each), membranes were incubated with ECL reagent for 1 min at room temperature. Chemiluminescence signals were then detected using a LAS-4000 system with default settings and signals quantified using Image Studio Lite software (version 5.2). Membrane parts previously incubated with antibody against CK1 alpha were stripped off antibodies by incubating with stripping buffer for 30 minutes followed by three washed with TBST (5 min each), blocking with 5% (w/v) skim milk for 1 hr, and incubation with primary antibody against uGAPDH overnight at 4° C. Subsequent washes, incubation with secondary antibody and signal acquisition were performed as described above.

IKZF3 = target: T2, IKZF3 (Homo sapiens, UniProt Q96SW2+Q9UKT9); assay: Selectivity western blot assay in MM1 S cells, IKZF3; type: cell-based; set-up: key: A represents no degradation observed at 30 μM; B represents trace degradation at 30 μM (below 20%); C represents weak degradation at 30 μM (below 50%); D represents degradation at 30 μM (>90%); E represents degradation at 3 μM (>90%); F represents degradation at 0.3 μM (>90%); details: MM1 S cells, 0.3, 3 and 30 μM, 6 hours
T2 construct: endogenous in cells; host or cells: MM1 S (ATCC CRL-2974)
Description: as §1

CK1alpha = target: T3, CK1alpha (Homo sapiens, UniProt P48729+Q96SW2); assay: Selectivity western blot assay in MM1 S cells, CK1alpha; type: cell-based; set-up: key: A represents no degradation observed at 30 μM; B represents trace degradation at 30 μM (below 20%); C represents weak degradation at 30 μM (below 50%); D represents degradation at 30 μM (>90%); E represents degradation at 3 μM (>90%); F represents degradation at 0.3 μM (>90%); details: MM1 S cells, 0.3, 3 and 30 μM, 6 hours
T3 construct: endogenous in cells; host or cells: MM1 S (ATCC CRL-2974)
Description: as §1

GSPT1 [1] = target: T4, GSPT1 (Homo sapiens, UniProt P15170+Q96SW2); assay: Selectivity western blot assay in MM1 S cells, GSPT1; type: cell-based; set-up: endogenous in cells; host or cells: MM1 S (ATCC CRL-2974); details: MM1 S cells, 0.3, 3 and 30 μM, 6 hours
Description: as §1

[2] = target: T5, Full length wild-type cereblon CRBN (Homo sapiens, UniProt Q96SW2); assay: Fluorescence polarization (FP) assay indicating cereblon binding; details: Table 3B; read-out: rFP IC50
T5 construct: Full length wild-type cereblon CRBN (80.0 nM, 10 μL) was incubated in assay buffer
Description: Compound activity was monitored in a fluorescence polarization (FP) homogeneous assay using 1-[5-({2-[2-(2-{[2-(2,6-dioxopiperidin-3-yl)-1,3-dioxo-2,3-dihydro-1H-isoindol-4-yl]oxy}acetamido)ethoxy]ethyl}carbamoyl)pentyl]-3,3-dimethyl-2-[(1E,3E)-5-[(2E)-1,3,3-trimethyl-5-sulfo-2,3-dihydro-1H-indol-2-ylidene]penta-1,3-dien-1-yl]-3H-indol-1-ium-5-sulfonate as a fluorescent probe. Unless otherwise stated, all reagents were purchased from Sigma Aldrich. Enzymatic reactions were conducted in Perkin-Elmer Black 384 well ProxiPlate Plus (catalogue no. 6008269) in 10 μL total volume. Full length wild-type cereblon CRBN (80.0 nM, 10 μL) was incubated in assay buffer containing 20 mM HEPES (pH 8.0), […], 0.5 mM TCEP and 0.05% Tween 20 in the presence or absence of compound (300 nL). Inhibitors were stored as 10 mM DMSO stocks in an inert environment (low humidity, dark, low oxygen, room temperature) using the Storage Pod System. Compounds and DMSO were dispensed using the Echo E5XX (Labcyte Inc. USA) to give concentrations from 300 to 0.937 or 3000 to 9.3 nM in a 12 data point curve. […] Following incubation at room temperature for 30 min, the assay was initiated by dispensing the probe to a final concentration of 5 nM (2.5 nL of a 20 μM stock) using the Echo E5XX. FP was measured after a period of 12 hours using a Pherastar plate reader (BMG Labtech, Germany) exciting at 590 nm and measuring the amount of parallel and perpendicular light at 675 nm. The FP signal was subsequently normalized to the no-compound control (i.e., DMSO). Analysis and IC50 values were derived using Dotmatics (Dotmatics UK) software.

GSPT1 [3] = target: T4, GSPT1; assay: GSPT1 degradation immunofluorescence assay in CAL-51 cells; type: cell-based; set-up: endogenous in cells; host or cells: CAL-51 (DSMZ ACC302); details: 6 hours, Table 5B, read-out: Activity for GSPT1 degradation, Code (DC50)
Description: CAL-51 cells were purchased from DSMZ (cat. Number ACC302), sub-cultured in 90% Dulbecco's MEM (4.5 g/L glucose, Gibco 11965)+10% heat inactivated FBS (BioConcept, 2-01F1361) and incubated at 37° C., 5% CO2. For the assay, imaging microtiterplate Cell Carrier 96 Ultra (Perkin Elmer 6055302) were pre-coated with Fibronectin (Sigma F085, 30 μl at 0.2 μg/ml) in PBS (100 μl, Gibco 14190) for 45 min at room temperature, rinsed with PBS and CAL-51 cells (30K cells/well) were plated and let to adhere overnight. Cells were treated with compounds typically using a serial dilution ranging from 30 μM to 0.1 nM for 6 hours. Compounds were stored at 10 mM DMSO stocks. Vehicle (DMSO), positive (CC-885, 10 μM) and rescue controls (positive control plus 0.2 μM bortezomib) were also included at this stage. Cells were subsequently rinsed with PBS and fixed in 10% Formalin solution (50 μl, Sigma HT5011)) for 20 mins at room temperature. Following three consecutive PBS washes (100 μl), cells were permeabilized in 0.1% Triton X-100 in PBS (Sigma 93443, 50 μl) for 15 mins at room temperature. Following three further PBS washes, 50 μl blocking buffer (1% BSA, Sigma A4503, in PBS) was added for 45 min for signal-to-noise reduction. Primary antibody (human GSPT1, Sigma HPA052488) was diluted in blocking buffer (dil. 1/300, 35 μl/well) and incubated with the cells overnight at 4° C. After three PBS washes, Alexa-fluor 488 coupled secondary antibodies (Invitrogen, A32731, dil. 1/1000), Alexa-fluor 647-Phalloidin (Invitrogen, A22287, dil. 1/200) and DAPI (Thermo, #62248, dil. 1/1000) were diluted in blocking buffer and incubated with the samples for 2 hours at room temperature. After three final PBS washes, samples were conserved in 100 μl PBS in the dark, until measurement. Image acquisition was performed on the Operetta High-Content Imager (Perkin-Elmer). Fluorescence intensity of Alexa-Fluor 488 (GSPT1), Alexa-Fluor 647 (Actin) and DAPI (Nucleus) were measured. For the determination of GSPT1 DC50 values, a custom algorithm implemented in the PerkinElmer image analysis software Harmony-Acapella® was developed. After user-defined setting of adjustment parameters, the analysis was run identically without human intervention for all image fields. DAPI staining of the nuclei was used to determine the location of cells using standard nuclei detection modules. Segmentation artifacts were removed by threshold-based filters for area, roundness and intensity. The outline of the cells was determined analogously from the sum of the normalized, smoothed DAPI and Actin channel, starting from each nucleus. The Alexa-Fluor 488 (GSPT1) signal intensity in each cell was finally measured, in order to obtain a Mean intensity per cell. GSPT1 degradation (DC50) was calculated after normalization to controls and data import in CDD vault Database, using non-linear regression.

T2 sequence (Q9UKT9 whole entry): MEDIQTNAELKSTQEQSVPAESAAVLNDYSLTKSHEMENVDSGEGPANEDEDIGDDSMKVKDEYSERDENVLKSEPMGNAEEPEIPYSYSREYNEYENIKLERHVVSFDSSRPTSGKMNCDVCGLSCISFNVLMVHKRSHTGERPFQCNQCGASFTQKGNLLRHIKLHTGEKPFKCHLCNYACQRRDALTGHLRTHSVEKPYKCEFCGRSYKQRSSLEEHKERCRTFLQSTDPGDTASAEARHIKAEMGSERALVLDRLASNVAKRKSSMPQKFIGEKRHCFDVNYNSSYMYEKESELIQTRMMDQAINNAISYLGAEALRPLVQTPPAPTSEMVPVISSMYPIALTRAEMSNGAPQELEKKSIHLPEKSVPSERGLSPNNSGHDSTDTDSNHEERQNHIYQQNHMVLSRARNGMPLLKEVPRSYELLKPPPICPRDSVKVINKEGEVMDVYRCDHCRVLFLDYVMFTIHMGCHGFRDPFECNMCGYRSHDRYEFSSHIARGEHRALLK
T2 sequence (Q96SW2 whole entry): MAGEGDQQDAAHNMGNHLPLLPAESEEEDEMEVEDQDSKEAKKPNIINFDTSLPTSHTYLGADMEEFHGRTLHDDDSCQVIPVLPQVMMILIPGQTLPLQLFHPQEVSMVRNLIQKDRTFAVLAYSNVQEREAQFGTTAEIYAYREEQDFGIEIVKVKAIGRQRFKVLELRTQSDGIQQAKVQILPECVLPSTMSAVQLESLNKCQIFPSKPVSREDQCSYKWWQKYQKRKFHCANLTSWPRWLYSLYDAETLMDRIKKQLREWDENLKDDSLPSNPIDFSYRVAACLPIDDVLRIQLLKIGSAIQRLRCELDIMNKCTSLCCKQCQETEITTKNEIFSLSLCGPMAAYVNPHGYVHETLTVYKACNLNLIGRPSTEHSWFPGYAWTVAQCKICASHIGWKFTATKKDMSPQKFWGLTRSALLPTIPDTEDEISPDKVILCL
T2 sequence (Q16531 whole entry partner): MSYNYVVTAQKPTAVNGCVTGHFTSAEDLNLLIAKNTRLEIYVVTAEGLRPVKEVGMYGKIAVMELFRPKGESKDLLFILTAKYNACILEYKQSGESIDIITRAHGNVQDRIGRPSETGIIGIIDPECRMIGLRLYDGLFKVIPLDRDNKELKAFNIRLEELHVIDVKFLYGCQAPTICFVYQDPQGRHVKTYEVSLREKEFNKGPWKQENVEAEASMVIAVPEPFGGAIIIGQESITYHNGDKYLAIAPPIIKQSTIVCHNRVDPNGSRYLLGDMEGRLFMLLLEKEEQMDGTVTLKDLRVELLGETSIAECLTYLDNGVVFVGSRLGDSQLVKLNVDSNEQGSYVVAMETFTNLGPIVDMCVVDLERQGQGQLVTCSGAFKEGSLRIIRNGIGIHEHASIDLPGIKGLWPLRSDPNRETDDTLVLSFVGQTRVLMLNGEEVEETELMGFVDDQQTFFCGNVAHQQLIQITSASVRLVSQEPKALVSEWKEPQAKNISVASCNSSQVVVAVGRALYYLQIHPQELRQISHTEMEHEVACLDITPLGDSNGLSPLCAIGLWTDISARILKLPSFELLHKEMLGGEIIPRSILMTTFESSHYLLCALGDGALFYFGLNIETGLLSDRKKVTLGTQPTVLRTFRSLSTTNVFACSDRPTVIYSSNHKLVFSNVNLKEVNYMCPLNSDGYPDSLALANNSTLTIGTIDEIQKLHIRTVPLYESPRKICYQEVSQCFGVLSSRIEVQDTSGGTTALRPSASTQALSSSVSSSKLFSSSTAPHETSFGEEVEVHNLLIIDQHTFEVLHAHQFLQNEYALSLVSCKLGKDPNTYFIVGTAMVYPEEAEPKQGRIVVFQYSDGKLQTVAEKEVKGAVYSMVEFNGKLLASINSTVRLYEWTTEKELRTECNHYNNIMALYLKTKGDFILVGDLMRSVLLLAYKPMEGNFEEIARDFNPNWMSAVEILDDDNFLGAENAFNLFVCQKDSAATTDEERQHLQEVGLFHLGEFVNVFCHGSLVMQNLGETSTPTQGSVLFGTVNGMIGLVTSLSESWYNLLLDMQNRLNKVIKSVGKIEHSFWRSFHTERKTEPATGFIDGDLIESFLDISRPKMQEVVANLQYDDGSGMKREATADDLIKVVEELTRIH
T1 sequence (Q13422 whole entry): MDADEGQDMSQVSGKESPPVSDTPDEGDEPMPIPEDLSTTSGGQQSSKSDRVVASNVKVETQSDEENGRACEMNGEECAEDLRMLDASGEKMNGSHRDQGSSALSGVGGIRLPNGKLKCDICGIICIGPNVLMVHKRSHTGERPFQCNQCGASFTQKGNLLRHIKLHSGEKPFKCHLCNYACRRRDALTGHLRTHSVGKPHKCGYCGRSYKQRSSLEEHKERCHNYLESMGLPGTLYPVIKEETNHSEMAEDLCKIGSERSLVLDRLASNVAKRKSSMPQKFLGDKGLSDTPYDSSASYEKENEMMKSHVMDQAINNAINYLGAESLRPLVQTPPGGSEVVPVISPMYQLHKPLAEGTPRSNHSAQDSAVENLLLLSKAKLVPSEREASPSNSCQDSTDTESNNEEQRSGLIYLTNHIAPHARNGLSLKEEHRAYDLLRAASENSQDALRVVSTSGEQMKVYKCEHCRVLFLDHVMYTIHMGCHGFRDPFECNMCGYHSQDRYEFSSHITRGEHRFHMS
T1 sequence (Q96SW2 whole entry): as the sequence (Q96SW2 whole entry) above
T1 sequence (Q16531 whole entry partner): as the sequence (Q16531 whole entry partner) above
T3 sequence (P48729 whole entry): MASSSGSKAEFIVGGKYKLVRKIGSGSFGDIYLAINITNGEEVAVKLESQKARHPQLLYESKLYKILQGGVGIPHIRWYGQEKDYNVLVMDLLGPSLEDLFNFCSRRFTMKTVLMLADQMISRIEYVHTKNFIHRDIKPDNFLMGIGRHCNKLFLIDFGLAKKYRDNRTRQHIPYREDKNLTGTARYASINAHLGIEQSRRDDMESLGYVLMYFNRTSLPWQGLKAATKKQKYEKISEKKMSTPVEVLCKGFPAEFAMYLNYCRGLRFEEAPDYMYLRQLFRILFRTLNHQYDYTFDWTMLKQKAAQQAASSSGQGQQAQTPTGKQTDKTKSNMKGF
T3 sequence (Q96SW2 whole entry): as the sequence (Q96SW2 whole entry) above
T3 sequence (Q16531 whole entry partner): as the sequence (Q16531 whole entry partner) above
T4 sequence (P15170 whole entry): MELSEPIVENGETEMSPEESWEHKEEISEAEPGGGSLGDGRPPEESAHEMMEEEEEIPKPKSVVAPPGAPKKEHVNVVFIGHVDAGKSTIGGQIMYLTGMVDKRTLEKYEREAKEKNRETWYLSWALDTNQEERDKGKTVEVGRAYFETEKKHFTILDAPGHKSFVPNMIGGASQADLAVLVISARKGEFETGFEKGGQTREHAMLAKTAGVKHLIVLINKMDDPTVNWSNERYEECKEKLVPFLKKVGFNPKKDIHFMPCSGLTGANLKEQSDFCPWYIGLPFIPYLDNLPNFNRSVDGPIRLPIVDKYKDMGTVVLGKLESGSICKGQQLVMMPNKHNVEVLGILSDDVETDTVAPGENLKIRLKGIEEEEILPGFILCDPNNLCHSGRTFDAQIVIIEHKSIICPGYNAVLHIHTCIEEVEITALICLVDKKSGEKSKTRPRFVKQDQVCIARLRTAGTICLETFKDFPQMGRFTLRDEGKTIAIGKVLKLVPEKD
T4 sequence (Q96SW2 whole entry): as the sequence (Q96SW2 whole entry) above
T4 sequence (Q16531 whole entry partner): as the sequence (Q16531 whole entry partner) above
T5 sequence (Q96SW2 whole entry): as the sequence (Q96SW2 whole entry) above

| IKZF1 degradation (IKZF1) | IC50 [2] [nM] | DC50 (GSPT1 [3]) [nM] | SMILES | IKZF3 degradation (IKZF3) | CK1alpha degradation (CK1alpha) | GSPT1 degradation (GSPT1 [1]) |
| --- | --- | --- | --- | --- | --- | --- |
| A | – | – | Cc1ncc(NC(=O)OCc2ccc3c(c2)C(=O)N(C2CCC(=O)NC2=O)C3)cc1Cl (stereo not shown) [Compound 206] | B (B represents trace degradation at 30 μM (below 20%)) | A | F (F represents degradation at 0.3 μM (>90%)) |
| A | – | – | O=C1CCC(N2Cc3ccc(COC(=O)Nc4ccc(-c5ccccc5)nc4)cc3C2=O)C(=O)N1 (stereo not shown) [Compound 242] | A | B (B represents trace degradation at 30 μM (below 20%)) | F (F represents degradation at 0.3 μM (>90%)) |
| A | – | – | Cc1c(Cl)cc(NC(=O)OCc2ccc3c(c2)C(=O)N(C2CCC(=O)NC2=O)C3)cc1OCCN1CCOCC1 (stereo not shown) [Compound 248] | B (B represents trace degradation at 30 μM (below 20%)) | B (B represents trace degradation at 30 μM (below 20%)) | F (F represents degradation at 0.3 μM (>90%)) |
| A | – | – | O=C1CCC(N2Cc3ccc(COC(=O)Nc4ccc(N5CCCCC5)nc4)cc3C2=O)C(=O)N1 (stereo not shown) [Compound 215] | B (B represents trace degradation at 30 μM (below 20%)) | C (C represents weak degradation at 30 μM (below 50%)) | F (F represents degradation at 0.3 μM (>90%)) |
| A | – | – | CC(C)(C)c1ccc(NC(=O)OCc2ccc3c(c2)C(=O)N(C2CCC(=O)NC2=O)C3)cn1 (stereo not shown) [Compound 243] | B (B represents trace degradation at 30 μM (below 20%)) | C (C represents weak degradation at 30 μM (below 50%)) | F (F represents degradation at 0.3 μM (>90%)) |
| – | 1200 to 1900 | ≤ 30 | CC(C)(C)c1ccc(NC(=O)OCc2cc(F)c3c(c2)C(=O)N(C2CCC(=O)NC2=O)C3)cn1 (stereo not shown) [Compound 509] | – | – | – |
| – | > 1900 | > 300 | Cc1ccc(NC(=O)OCc2ccc3c(c2Cl)C(=O)N(C2CCC(=O)NC2=O)C3)cc1Cl (stereo not shown) [Compound 572] | – | – | – |

Second part, the compound before the results:

| SMILES | IKZF1 degradation (IKZF1) | IC50 [2] [nM] | DC50 (GSPT1 [3]) [nM] | IKZF3 degradation (IKZF3) | CK1alpha degradation (CK1alpha) | GSPT1 degradation (GSPT1 [1]) |
| --- | --- | --- | --- | --- | --- | --- |
| Cc1ccc(NC(=O)OCc2ccc3c(c2C)C(=O)N(C2CCC(=O)NC2=O)C3)cc1Cl (stereo not shown) [Compound 573] | – | ≤ 600 | > 300 | – | – | – |
| COc1c(COC(=O)Nc2ccc(C)c(Cl)c2)ccc2c1C(=O)N(C1CCC(=O)NC1=O)C2 (stereo not shown) [Compound 570] | – | > 1900 | > 300 | – | – | – |
| O=C1CCC(N2Cc3c(F)cc(COC(=O)Nc4cc(F)c(F)c(Cl)c4)cc3C2=O)C(=O)N1 (stereo not shown) [Compound 561] | – | > 1900 | ≤ 30 | – | – | – |
| O=C1CCC(N2Cc3c(F)cc(COC(=O)Nc4cc(F)cc(Cl)c4)cc3C2=O)C(=O)N1 (stereo not shown) [Compound 533] | – | > 1900 | 30 to 300 | – | – | – |
| O=C1CCC(N2Cc3c(F)cc(COC(=O)Nc4ccc(C5CCC5)cc4)cc3C2=O)C(=O)N1 (stereo not shown) [Compound 522] | – | > 1900 | ≤ 30 | – | – | – |
| COc1cc(COC(=O)Nc2ccc(C3CCC3)cc2)cc2c1CN(C1CCC(=O)NC1=O)C2=O (stereo not shown) [Compound 557] | – | ≤ 600 | ≤ 30 | – | – | – |
| COc1cc(COC(=O)Nc2ccc(N3CCC[C@@H]3C)nc2)cc2c1CN(C1CCC(=O)NC1=O)C2=O (stereo partly shown) [Compound 562] | – | ≤ 600 | 30 to 300 | – | – | – |
| Cc1cc(Cl)cc(NC(=O)OCc2cc(F)c3c(c2)C(=O)N(C2CCC(=O)NC2=O)C3)c1 (stereo not shown) [Compound 527] | – | 1200 to 1900 | 30 to 300 | – | – | – |
